Measured values published in PubChem BioAssay (NCI).
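Step 1: Grow cells in 96-well plates. Step 2: Expose to compound for 48 hours at 5 concentrations. Step 3: Interpolate endpoints linearly; if unreached, use highest concentration. The concentration for 50% growth inhibition is given as GI50. TGI is the concentration that stops growth completely.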

Key:
Test in all cases: growth of human tumour cells (NCI), 48 h
UACC-257 melanoma = system: UACC-257 melanoma
HCC-2998 colon = system: HCC-2998 colon
MOLT-4 leukemia = system: MOLT-4 leukemia
SK-MEL-5 melanoma = system: SK-MEL-5 melanoma
PC-3 prostate = system: PC-3 prostate
HCT-116 colon = system: HCT-116 colon
MDA-MB-435 = system: MDA-MB-435
K-562 leukemia = system: K-562 leukemia
TK-10 renal = system: TK-10 renal
IGROV1 ovarian = system: IGROV1 ovarian
EKVX NSCLC = system: EKVX NSCLC
CCRF-CEM leukemia = system: CCRF-CEM leukemia
RXF 393 renal = system: RXF 393 renal
KM12 colon = system: KM12 colon
OVCAR-5 ovarian = system: OVCAR-5 ovarian
HOP-92 NSCLC = system: HOP-92 NSCLC
HCT-15 colon = system: HCT-15 colon
MDA-MB-231 breast = system: MDA-MB-231 breast
A498 renal = system: A498 renal
SW-620 colon = system: SW-620 colon
SNB-19 CNS = system: SNB-19 CNS
HOP-62 NSCLC = system: HOP-62 NSCLC
SNB-75 CNS = system: SNB-75 CNS
ACHN renal = system: ACHN renal
OVCAR-8 ovarian = system: OVCAR-8 ovarian
SK-OV-3 ovarian = system: SK-OV-3 ovarian
MALME-3M melanoma = system: MALME-3M melanoma
SF-295 CNS = system: SF-295 CNS
SF-268 CNS = system: SF-268 CNS
SK-MEL-28 melanoma = system: SK-MEL-28 melanoma
HS 578T breast = system: HS 578T breast
NCI-H23 lung = system: NCI-H23 lung
UACC-62 melanoma = system: UACC-62 melanoma
A549 NSCLC = system: A549 NSCLC
NCI-H460 lung = system: NCI-H460 lung
MCF7 breast = system: MCF7 breast
BT-549 breast = system: BT-549 breast
HL-60(TB) leukemia = system: HL-60(TB) leukemia
T-47D breast = system: T-47D breast
OVCAR-4 ovarian = system: OVCAR-4 ovarian
NCI-H522 lung = system: NCI-H522 lung
NCI-H226 lung = system: NCI-H226 lung
M14 melanoma = system: M14 melanoma
SN12C renal = system: SN12C renal
U251 CNS = system: U251 CNS
COLO 205 colon = system: COLO 205 colon
HT29 colon = system: HT29 colon
DU-145 prostate = system: DU-145 prostate
UO-31 renal = system: UO-31 renal
786-0 renal = system: 786-0 renal
SK-MEL-2 melanoma = system: SK-MEL-2 melanoma
NCI/ADR-RES ovarian = system: NCI/ADR-RES ovarian
SF-539 CNS = system: SF-539 CNS
SR leukemia = system: SR leukemia
CAKI-1 renal = system: CAKI-1 renal

`NS(=O)(=O)c1ccc(Nc2nc(N/N=C/c3ccc(C(F)(F)F)cc3)nc(Nc3ccccc3)n2)cc1` was tested, and the GI50 (UACC-257 melanoma) was 2.42 µM, the TGI (UACC-257 melanoma) was 7.26 µM and the GI50 (HCC-2998 colon) was 2.97 µM. The TGI (HCC-2998 colon) was 9.04 µM, the GI50 (MOLT-4 leukemia) was 3.06 µM and the TGI (MOLT-4 leukemia) was 14.4 µM. For the same molecule, the GI50 (SK-MEL-5 melanoma) was 1.74 µM, the TGI (SK-MEL-5 melanoma) was 3.18 µM and the GI50 (PC-3 prostate) was 2.8 µM. The TGI (PC-3 prostate) was 9.72 µM, the GI50 (HCT-116 colon) was 3.1 µM and the TGI (HCT-116 colon) was 10.3 µM. It also gave a GI50 (MDA-MB-435) of 2.07 µM, a TGI (MDA-MB-435) of 4.44 µM and a GI50 (K-562 leukemia) of 3.51 µM. The TGI (K-562 leukemia) was 12.8 µM, the GI50 (TK-10 renal) was 3.45 µM and the TGI (TK-10 renal) was 10.5 µM. It also gave a GI50 (IGROV1 ovarian) of 2.64 µM, a TGI (IGROV1 ovarian) of 7.42 µM and a GI50 (EKVX NSCLC) of 2.62 µM. The TGI (EKVX NSCLC) was 8.51 µM, the GI50 (CCRF-CEM leukemia) was 3 µM and the TGI (CCRF-CEM leukemia) was > 100 µM. The GI50 (RXF 393 renal) was 1.82 µM, the TGI (RXF 393 renal) was 4.65 µM and the GI50 (KM12 colon) was 2.38 µM. The TGI (KM12 colon) was 5.61 µM, the GI50 (OVCAR-5 ovarian) was 2.96 µM and the TGI (OVCAR-5 ovarian) was 11 µM. The GI50 (HOP-92 NSCLC) was 2.38 µM, the TGI (HOP-92 NSCLC) was 6.31 µM and the GI50 (HCT-15 colon) was 2.32 µM. The TGI (HCT-15 colon) was 6.48 µM, the GI50 (MDA-MB-231 breast) was 2.31 µM and the TGI (MDA-MB-231 breast) was 5.52 µM. The GI50 (A498 renal) was 2.61 µM, the TGI (A498 renal) was 9.26 µM and the GI50 (SW-620 colon) was 3.3 µM. It also gave a TGI (SW-620 colon) of 11.1 µM, a GI50 (SNB-19 CNS) of 3.46 µM and a TGI (SNB-19 CNS) of 11.4 µM. The GI50 (HOP-62 NSCLC) was 2.15 µM, the TGI (HOP-62 NSCLC) was 5.78 µM and the GI50 (SNB-75 CNS) was 2.05 µM. The TGI (SNB-75 CNS) was 6.24 µM, the GI50 (ACHN renal) was 2.68 µM and the TGI (ACHN renal) was 7.59 µM. It also gave a GI50 (OVCAR-8 ovarian) of 2.82 µM, a TGI (OVCAR-8 ovarian) of 10.4 µM and a GI50 (SK-OV-3 ovarian) of 3.66 µM. It also gave a TGI (SK-OV-3 ovarian) of 33.8 µM, a GI50 (MALME-3M melanoma) of 1.87 µM and a TGI (MALME-3M melanoma) of 3.9 µM. The GI50 (SF-295 CNS) was 1.92 µM, the TGI (SF-295 CNS) was 4.07 µM and the GI50 (SF-268 CNS) was 3.51 µM. It also gave a TGI (SF-268 CNS) of 14 µM, a GI50 (SK-MEL-28 melanoma) of 2.44 µM and a TGI (SK-MEL-28 melanoma) of 7.37 µM. For the same molecule, the GI50 (HS 578T breast) was 3.07 µM, the TGI (HS 578T breast) was > 100 µM and the GI50 (NCI-H23 lung) was 1.95 µM. It also gave a TGI (NCI-H23 lung) of 4.25 µM, a GI50 (UACC-62 melanoma) of 2.35 µM and a TGI (UACC-62 melanoma) of 5.33 µM. For the same molecule, the GI50 (A549 NSCLC) was 3.11 µM, the TGI (A549 NSCLC) was 11.6 µM and the GI50 (NCI-H460 lung) was 3.02 µM. The TGI (NCI-H460 lung) was 8.89 µM, the GI50 (MCF7 breast) was 2.18 µM and the TGI (MCF7 breast) was 7.37 µM. For the same molecule, the GI50 (BT-549 breast) was 2.79 µM, the TGI (BT-549 breast) was 9.48 µM and the GI50 (HL-60(TB) leukemia) was 3.59 µM. For the same molecule, the TGI (HL-60(TB) leukemia) was > 100 µM, the GI50 (T-47D breast) was 2.48 µM and the TGI (T-47D breast) was 9.78 µM. For the same molecule, the GI50 (OVCAR-4 ovarian) was 3.69 µM, the TGI (OVCAR-4 ovarian) was 64.8 µM and the GI50 (NCI-H522 lung) was 2.66 µM. For the same molecule, the TGI (NCI-H522 lung) was 7.77 µM, the GI50 (NCI-H226 lung) was 2.45 µM and the TGI (NCI-H226 lung) was 6.22 µM. The GI50 (M14 melanoma) was 2.51 µM, the TGI (M14 melanoma) was 6.45 µM and the GI50 (SN12C renal) was 3 µM. The TGI (SN12C renal) was 10.2 µM, the GI50 (U251 CNS) was 2.68 µM and the TGI (U251 CNS) was 11.3 µM. It also gave a GI50 (COLO 205 colon) of 1.86 µM, a TGI (COLO 205 colon) of 4.37 µM and a GI50 (HT29 colon) of 2.44 µM. The TGI (HT29 colon) was 5.78 µM, the GI50 (DU-145 prostate) was 3.31 µM and the TGI (DU-145 prostate) was 11 µM. The GI50 (UO-31 renal) was 1.88 µM, the TGI (UO-31 renal) was 4.64 µM and the GI50 (786-0 renal) was 2.22 µM. For the same molecule, the TGI (786-0 renal) was 5.2 µM, the GI50 (SK-MEL-2 melanoma) was 2.17 µM and the TGI (SK-MEL-2 melanoma) was 5 µM. For the same molecule, the GI50 (NCI/ADR-RES ovarian) was 12.3 µM, the TGI (NCI/ADR-RES ovarian) was 75.7 µM and the GI50 (SF-539 CNS) was 1.86 µM. For the same molecule, the TGI (SF-539 CNS) was 4.23 µM, the GI50 (SR leukemia) was 3.07 µM and the TGI (SR leukemia) was 15.3 µM. It also gave a GI50 (CAKI-1 renal) of 3.05 µM and a TGI (CAKI-1 renal) of 9.93 µM.
